Laboratory results: US8273773B2 (priority 2008, dated 2012)

Legend:
[1] = molecular target: T1, HCV polymerase (NS5B570n-Con1) (Hepatitis C virus genotype 1b, UniProt Q9WMX2); assay: biochemical; design: species or system HCV Con1 strain; settings: IC50 HCV NS5B RNA Polymerase Assay, values without asterisk; 20 nM NS5B570n-Con1 enzyme, 20 nM cIRES RNA template;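 further: recombinant His-tagged enzyme from E. coli, radiolabeled nucleotide incorporation into acid-insoluble RNA read by scintillation after filtration, no-enzyme background subtracted, activity relative to positive control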
T1 construct: contains a 21 amino acid deletion at the C-terminus relative to the full-length HCV polymerase; 6-histidine (N); made in house; host or cells: E. coli strain BL21(DE) pLysS (pET17b)

COc1c(NC(=O)c2ccc(N)cc2Cl)cc(-c2ccc[nH]c2=O)cc1C(C)(C)C [I-25] gave an IC50 [1] of 31 nM and a melting point of 226 to 228 °C.
COc1cc(-c2ccc[nH]c2=O)cc(C(C)(C)C)c1OC [I-26] showed an IC50 [1] of 866 nM and a melting point of 206.3 to 207.1 °C.
Work on COc1c(C)cc(-c2ccc[nH]c2=O)cc1C(C)(C)C [I-29] yielded an IC50 [1] of 521 nM and a melting point of 176 to 178 °C.
Compound CCc1cc(-c2ccc[nH]c2=O)cc(C(C)(C)C)c1OC [I-30] has an IC50 [1] of 728 nM and a melting point of 213 to 214 °C.
With CC(C)(C)c1cc(Oc2ccccc2)cc(-c2ccc[nH]c2=O)c1 [I-45, 3-(3-tert-Butyl-5-phenoxy-phenyl)-1H-pyridin-2-one] the IC50 [1] was 786 nM and the melting point was 90 to 91 °C.
Compound CC(C)(C)c1cc(Cc2ccccc2)cc(-c2ccc[nH]c2=O)c1 [I-46, 3-(3-Benzyl-5-tert-butyl-phenyl)-1H-pyridin-2-one] has an IC50 [1] of 534 nM and a melting point of 180 to 181 °C.
In the case of COc1c(Cc2ccccc2)cc(-c2ccc[nH]c2=O)cc1C(C)(C)C [I-48], the IC50 [1] is reported as 528 nM and the melting point is reported as 202.6 to 204.3 °C.
For COc1c(C(=O)c2cccc(F)c2)cc(-c2ccc[nH]c2=O)cc1C(C)(C)C [I-49], the IC50 [1] was 71 nM and the melting point was 209 to 210 °C.
COc1c(C(=O)c2ccc(F)cc2)cc(-c2ccc[nH]c2=O)cc1C(C)(C)C [I-50] gave an IC50 [1] of 52 nM and a melting point of 203 to 205 °C.
Work on CC(C)(C)c1cc(CCc2ccc(NS(C)(=O)=O)cc2)c(O)c(-c2ccc[nH]c2=O)c1 [I-51, N-(4-{2-[5-tert-Butyl-2-hydroxy-3-(2-oxo-1,2-dihydro-pyridin-3-yl)-phenyl]-ethyl}-phenyl)-methanesulfonamide] yielded an IC50 [1] of 10 nM and a melting point of 96.4 to 135.6 °C.
With COc1c(C(=O)c2cc(F)cc(F)c2)cc(-c2ccc[nH]c2=O)cc1C(C)(C)C [I-52] the IC50 [1] was 143 nM and the melting point was 197.1 to 198.6 °C.
Work on Cc1cc(-c2cc(F)c[nH]c2=O)cc(C(C)(C)C)c1 [I-53] yielded an IC50 [1] of 1930 nM and a melting point of 244 to 246 °C.
Work on COc1c(C(=O)c2cccc(O)c2)cc(-c2ccc[nH]c2=O)cc1C(C)(C)C [I-54] yielded an IC50 [1] of 9 nM and a melting point of 145 to 148 °C.
For COc1c(C(=O)c2ccc(O)cc2)cc(-c2ccc[nH]c2=O)cc1C(C)(C)C [I-55], the IC50 [1] was 59 nM and the melting point was 185 to 187 °C.
For COc1ccc(-c2ccc[nH]c2=O)c(F)c1C(C)(C)C [I-56, 3-(3-tert-Butyl-2-fluoro-4-methoxy-phenyl)-1H-pyridin-2-one], the IC50 [1] was 136 nM and the melting point was 164.5 to 166 °C.
In the case of COc1c(C(=O)c2sccc2C)cc(-c2ccc[nH]c2=O)cc1C(C)(C)C [I-57], the IC50 [1] is reported as 61 nM and the melting point is reported as 123.3 to 125.5 °C.
For COc1c(NC(=O)c2ccccc2)cc(-c2ccc[nH]c2=O)cc1C(C)(C)C [I-58], the IC50 [1] was 34 nM and the melting point was 212 to 216 °C.
With COc1c(C(=O)c2cccc(N)c2)cc(-c2ccc[nH]c2=O)cc1C(C)(C)C [I-59, 3-[3-(3-amino-benzoyl)-5-tert-butyl-4-methoxy-phenyl]-1H-pyridin-2-one] the IC50 [1] was 9 nM and the melting point was 145 to 150 °C.
With COc1ccc(-c2ccc[nH]c2=O)cc1C1(C)CC1 [I-61] the IC50 [1] was 1230 nM and the melting point was 194 to 195 °C.
With COc1ccc(-c2ccc[nH]c2=O)cc1C(C)(C)OC [I-62] the IC50 [1] was 4130 nM and the melting point was 154 to 155 °C.
COc1c(C(=O)c2cccc(C(N)=O)c2)cc(-c2ccc[nH]c2=O)cc1C(C)(C)C [I-63] gave an IC50 [1] of 10 nM and a melting point of 150 to 160 °C.
Compound COc1c(CCc2ccc(NS(C)(=O)=O)cc2)cc(-c2ccc(C)[nH]c2=O)cc1C(C)(C)C [I-64, N-(4-{2-[3-tert-Butyl-2-methoxy-5-(6-methyl-2-oxo-1,2-dihydro-pyridin-3-yl)-phenyl]-ethyl}-phenyl)-methanesulfonamide] has an IC50 [1] of 8 nM and a melting point of 239 to 241 °C.
COc1c(C(=O)c2cccc(CNS(C)(=O)=O)c2)cc(-c2ccc[nH]c2=O)cc1C(C)(C)C [I-65] showed an IC50 [1] of 30 nM and a melting point of 110 to 115 °C.
Work on COc1c(CCc2ccc(NS(C)(=O)=O)cc2)cc(-c2cc(F)c[nH]c2=O)cc1C(C)(C)C [I-67] yielded an IC50 [1] of 10 nM and a melting point of 125 to 130 °C.
For COc1c(C(=O)Nc2ccccc2)cc(-c2ccc[nH]c2=O)cc1C(C)(C)C [I-68], the IC50 [1] was 107 nM and the melting point was 288 to 290 °C.
With COc1c(C(=O)Nc2ccc(NS(C)(=O)=O)cc2C)cc(-c2ccc[nH]c2=O)cc1C(C)(C)C [I-69, 3-tert-Butyl-N-(4-methanesulfonylamino-2-methyl-phenyl)-2-methoxy-5-(2-oxo-1,2-dihydro-pyridin-3-yl)-benzamide] the IC50 [1] was 13 nM and the melting point was 278 to 280 °C.
COc1c(NC(=O)c2ccc(N)cc2)cc(-c2ccc[nH]c2=O)cc1C(C)(C)C [I-72] showed an IC50 [1] of 34 nM and a melting point of 190 to 193 °C.
Work on CC(C)(C)c1cc(-c2ccc[nH]c2=O)cc(NC(=O)c2ccc(NS(C)(=O)=O)cc2)c1F [I-73, N-[3-tert-Butyl-2-fluoro-5-(2-oxo-1,2-dihydro-pyridin-3-yl)-phenyl]-4-methanesulfonylamino-benzamide] yielded an IC50 [1] of 54 nM and a melting point of 286 to 288 °C.
CC(C)(C)c1cc(CCc2ccc(NS(C)(=O)=O)cc2)cc(-c2ccc[nH]c2=O)c1 [I-74] showed an IC50 [1] of 25 nM and a melting point of 211 to 213 °C.
Compound COc1c(C(=O)Nc2ccc(CNS(C)(=O)=O)cc2)cc(-c2ccc[nH]c2=O)cc1C(C)(C)C [I-76] has an IC50 [1] of 62 nM and a melting point of 213 to 216 °C.
CC(=O)Nc1c(CCc2ccc(NS(C)(=O)=O)cc2)cc(C(C)(C)C)cc1-c1ccc[nH]c1=O [I-80, N-[4-tert-Butyl-2-[2-(4-methanesulfonylamino-phenyl)-ethyl]-6-(2-oxo-1,2-dihydro-pyridin-3-yl)-phenyl]-acetamide] showed an IC50 [1] of 97 nM and a melting point of 180 to 182 °C.
For COc1c(NC(=O)c2ccc(NS(C)(=O)=O)cc2)cc(-c2cc(F)c[nH]c2=O)cc1C(C)(C)C [I-81], the IC50 [1] was 22 nM and the melting point was 272 to 274 °C.
COc1c(NC(=O)c2ccc(NS(C)(=O)=O)cc2)cc(-c2ccc[nH]c2=O)cc1C1(C)CC1 [I-82] showed an IC50 [1] of 6 nM and a melting point of 254 to 256 °C.
For CC(=O)Nc1ccc(CCc2cc(-c3ccc[nH]c3=O)cc(C(C)(C)C)c2)cc1 [I-83], the IC50 [1] was 125 nM and the melting point was 218 to 220 °C.
For COc1c(C(=O)c2ccnc(N)c2)cc(-c2ccc[nH]c2=O)cc1C(C)(C)C [I-84, 3-[3-(2-Amino-pyridine-4-carbonyl)-5-tert-butyl-4-methoxy-phenyl]-1H-pyridin-2-one], the IC50 [1] was 32 nM and the melting point was 140 to 145 °C.
CNC(=O)Nc1ccc(CCc2cc(-c3ccc[nH]c3=O)cc(C(C)(C)C)c2)cc1 [I-86] showed an IC50 [1] of 278 nM and a melting point of 237 to 239 °C.
Compound CC(C)(C)c1cc(CCc2ccc(NS(C)(=O)=O)cc2)c(C#N)c(-c2ccc[nH]c2=O)c1 [I-87, N-(4-{2-[5-tert-butyl-2-cyano-3-(2-oxo-1,2-dihydro-pyridin-3-yl)-phenyl]-ethyl}-phenyl)-methanesulfonamide] has an IC50 [1] of 13 nM and a melting point of 128 to 130 °C.
In the case of CC(C)(C)c1cc(CCc2ccc(NS(C)(=O)=O)cc2)cc(-c2cc(F)c[nH]c2=O)c1 [I-94], the IC50 [1] is reported as 10 nM and the melting point is reported as 191 to 193 °C.
In the case of CC(C)(C)c1cc(CCc2ccc(NS(C)(=O)=O)cc2)c(N)c(-c2ccc[nH]c2=O)c1 [I-98, N-(4-{2-[2-Amino-5-tert-butyl-3-(2-oxo-1,2-dihydro-pyridin-3-yl)-phenyl]-ethyl}-phenyl)-methanesulfonamide], the IC50 [1] is reported as 7 nM and the melting point is reported as 140 to 142 °C.
COc1c(CCc2ccc(N)cc2)cc(-c2ccc[nH]c2=O)cc1C1(C)CC1 [I-99, 3-[3-[2-(4-amino-phenyl)-ethyl]-4-methoxy-5-(1-methyl-cyclopropyl)-phenyl]-1H-pyridin-2-one] showed an IC50 [1] of 590 nM and a melting point of 209 to 211 °C.
In the case of COc1c(C(=O)c2cccc(NS(C)(=O)=O)c2)cc(-c2ccc[nH]c2=O)cc1C(C)(C)C [I-100, N-{3-[3-tert-Butyl-2-methoxy-5-(2-oxo-1,2-dihydro-pyridin-3-yl)-benzoyl]-phenyl}-methanesulfonamide], the IC50 [1] is reported as 16 nM and the melting point is reported as 261 to 263 °C.
Compound COc1c(C(=O)NC2CCCCC2)cc(-c2ccc[nH]c2=O)cc1C(C)(C)C [I-101] has an IC50 [1] of 753 nM and a melting point of 136 to 138 °C.
COc1c(CCc2ccc(NS(C)(=O)=O)cc2F)cc(-c2ccc[nH]c2=O)cc1C(C)(C)C [I-102, N-(4-{2-[3-tert-Butyl-2-methoxy-5-(2-oxo-1,2-dihydro-pyridin-3-yl)-phenyl]-ethyl}-3-fluoro-phenyl)-methanesulfonamide] gave an IC50 [1] of 8 nM and a melting point of 120 to 122 °C.
For COc1c(CCc2ccc(NS(C)(=O)=O)c(F)c2)cc(-c2ccc[nH]c2=O)cc1C(C)(C)C [I-103], the IC50 [1] was 8 nM and the melting point was 111 to 113 °C.
Compound COc1c(C(=O)c2cccc(CN)c2)cc(-c2ccc[nH]c2=O)cc1C(C)(C)C [I-106] has an IC50 [1] of 24 nM and a melting point of 110 to 115 °C.
CC(C)(C)c1cc(-c2ccc[nH]c2=O)cc(S(=O)(=O)c2ccccc2)c1 [I-107, 3-(3-Benzenesulfonyl-5-tert-butyl-phenyl)-1H-pyridin-2-one] gave an IC50 [1] of 2490 nM and a melting point of 252 to 253 °C.
Compound COc1c(CCc2ccc(NS(C)(=O)=O)cc2)cc(-c2ccc[nH]c2=O)cc1C1(C)CC1 [I-108, N-(4-{2-[2-Methoxy-3-(1-methyl-cyclopropyl)-5-(2-oxo-1,2-dihydro-pyridin-3-yl)-phenyl]-ethyl}-phenyl)-methanesulfonamide] has an IC50 [1] of 6 nM and a melting point of 192 to 194 °C.
